From patent US11459546B2, “Method for producing somatic cell, somatic cell, and composition” (Kyoto Prefectural Public University Corporation, priority 2016, dated 2022) come the findings set out here.

This experiment concerns Human skin fibroblasts. Put plainly: Direct transformation from human fibroblast to brown adipocyte (Example B). Also on record: key: the mark “++++” indicates that almost all of the fibroblasts were transformed into brown adipocytes; +++: the larger the number of the marks “+” is, the higher the transformation efficiency is; ++: the larger the number of the marks “+” is, the higher the transformation efficiency is; the larger the number of the marks “+” is, the higher the transformation efficiency is; The mark “−” indicates that the fibroblasts were not transformed into brown adipocytes. Conditions: fibroblast of subject; judged from UCP1 immunostaining and cell states, FIG. 4 to FIG. 8. The class given is cell-based. The procedure: Human skin fibroblasts were purchased from DS Pharma Biomedical Co., Ltd. Cell information is described in the following table.
About 1.5×10^5 cells were seeded on a 35 mm dish containing a high-glucose DMEM medium (11995-065, Gibco, MA, USA) to which 10% fetal bovine serum (FBS) (HyClone, Utah, USA) and penicillin/streptomycin (Gibco) were added.
After each of the human fibroblasts reached 80-90% confluence, the medium was changed to start direct transformation into the brown adipocyte. The adipocyte medium for use was prepared by adding an additive reagent containing ascorbic acid, biotin, pantothenic acid, triiodothyronine, octanoic acid, insulin, dexamethasone, IBLMX (3-isobutyl-1-methylxanthine), FBS and penicillin/streptomycin (MK425, Takara Bio Inc.) to a high-glucose DMEM medium (043-30085, Wako Pure Chemical Industries, Ltd.). […]
Immunocytochemistry was performed in accordance with a previous report (Dai P, et al. J Clin Biochem Nutr. 2015; 56 (3): 166-70). […] All images were acquired using a fluorescence microscope (Axio Vert. A1, Carl Zeiss, Oberkochen, Germany). […]
The efficiencies of transformation into the adipocyte-like cells with various combinations of the compounds were evaluated from the results shown in FIG. 4 to FIG. 8, and the results are shown in the following table. […]

Consider `CN(CCOc1ccc(CC2SC(=O)NC2=O)cc1)c1ccccn1` (stereo not shown) [Ro only, Rosiglitazone], for which the “Efficiency (transformation into the adipocyte-like cells)” value is reported as “−”.
